Earlier results as cited in patent US9445901B2, “Prosthesis with sustained release analgesic” (priority 2003, dated 2016).
Counter-ions that a name gives are not always drawn.

Conditions: man, after injection for caudal, epidural or peripheral nerve block

time to peak levels of bupivacaine in the blood: 30 to 45 min
Compound: CCCCN1CCCCC1C(=O)Nc1c(C)cccc1C (centres unmarked) [Marcaine, bupivacaine hydrochloride]
decline of blood levels after the peak: decline to insignificant levels during the next three to six hours
